Values of other authors as cited in patent US7091196B2, “Bifunctional heterocyclic compounds and methods of making and using same” (Rib-X Pharmaceuticals, Inc., priority 2002, dated 2006).

Details: literature report, Gregory et al. (1989) J. Med. Chem. 32: 1673-1681

COC(=O)c1nnn(C[C@@H]2CN(c3ccc(C(C)=O)cc3)C(=O)O2)c1C(=O)OC [Compound 6]
activity as an antibacterial agent: inactive
